Consider 24 molecules from patent US20260098030A1, “NEGATIVE ALLOSTERIC MODULATORS OF METABOTROPIC GLUTAMATE RECEPTOR 2” (Vanderbilt University, priority 2022, published 2026).

Assay [1] has as its system C57B16/J mice. The following applies: cited from earlier work.
Assay [2] deals with Helpless (H) mice. The following applies: cited from earlier work; for activity in the tail suspension test: Helpless (H) mice; for antidepressant effect in helpless mice: LY341495 acute administration, fluoxetine chronic (21 days) treatment.
The test system of assay [3] is central mGlu2 and mGlu3 receptors. The following applies: in vivo; cited from earlier work.
Assay [4] deals with T1, rat mGlu2 (Rattus norvegicus, UniProt P31421).
T1 construct: expressed in transfected cells; host or cells: HEK-293 cells stably co-expressing GIRK channels
The experiment in a line: mGlu GIRK cell-based thallium flux assay, rat mGlu2. The following applies: HEK-293 cells co-expressing rat mGlu2 and GIRK, EC80 glutamate. The procedure, abridged: (§1)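 HEK-293 cells stably co-expressing GIRK with human mGlu3, human mGlu2 or rat mGlu2 were loaded 1 h at 25° C with Thallos dye, then given compound (30 μM to 1.5 nM final, 10-point) for 2 min 20 s before EC80 glutamate plus thallium. Baseline-corrected fluorescence slope, normalized to ECmax glutamate, fitted to 4-parameter logistic for IC50.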

The target of assay [5] is Rat mGlu3 (UniProt P31422). The experiment in a line: mGlu GIRK cell-based thallium flux assay, mGlu3. The following applies: HEK-293 cells co-expressing mGlu3 and GIRK, EC80 glutamate.
Assay [6] addresses T2, human mGlu2 (Homo sapiens, UniProt Q14416).
T2 construct: expressed in transfected cells; host or cells: HEK-293 cells stably co-expressing GIRK channels
The experiment in a line: mGlu GIRK cell-based thallium flux assay, human mGlu2. As to conditions: HEK-293 cells co-expressing human mGlu2 and GIRK, EC80 glutamate. Summed up:
as §1

The subject of assay [7] is Dutch APP transgenic mice. As to conditions: cited from earlier work.
Assay [8] has as its system mGlu2. As to conditions: cited from earlier work.
The test system of assay [9] is mouse. The following applies: normal animals; cited from earlier work.
For assay [10], the system named is mice. As to conditions: cited from earlier work.
Assay [11] has as its system rat. The following applies: normal animals; cited from earlier work.
For assay [12], the system named is social isolation-reared mice. As to conditions: cited from earlier work.
For assay [13] the following is noted: in vivo; cited from earlier work.
Assay [14] relates to olfactory bulbectomized rats. The following applies: repeated administration for 14 days; cited from earlier work.
For assay [15] the following is noted: treatment for 7 days; cited from earlier work.

T2 sequence (Q14416 19-872): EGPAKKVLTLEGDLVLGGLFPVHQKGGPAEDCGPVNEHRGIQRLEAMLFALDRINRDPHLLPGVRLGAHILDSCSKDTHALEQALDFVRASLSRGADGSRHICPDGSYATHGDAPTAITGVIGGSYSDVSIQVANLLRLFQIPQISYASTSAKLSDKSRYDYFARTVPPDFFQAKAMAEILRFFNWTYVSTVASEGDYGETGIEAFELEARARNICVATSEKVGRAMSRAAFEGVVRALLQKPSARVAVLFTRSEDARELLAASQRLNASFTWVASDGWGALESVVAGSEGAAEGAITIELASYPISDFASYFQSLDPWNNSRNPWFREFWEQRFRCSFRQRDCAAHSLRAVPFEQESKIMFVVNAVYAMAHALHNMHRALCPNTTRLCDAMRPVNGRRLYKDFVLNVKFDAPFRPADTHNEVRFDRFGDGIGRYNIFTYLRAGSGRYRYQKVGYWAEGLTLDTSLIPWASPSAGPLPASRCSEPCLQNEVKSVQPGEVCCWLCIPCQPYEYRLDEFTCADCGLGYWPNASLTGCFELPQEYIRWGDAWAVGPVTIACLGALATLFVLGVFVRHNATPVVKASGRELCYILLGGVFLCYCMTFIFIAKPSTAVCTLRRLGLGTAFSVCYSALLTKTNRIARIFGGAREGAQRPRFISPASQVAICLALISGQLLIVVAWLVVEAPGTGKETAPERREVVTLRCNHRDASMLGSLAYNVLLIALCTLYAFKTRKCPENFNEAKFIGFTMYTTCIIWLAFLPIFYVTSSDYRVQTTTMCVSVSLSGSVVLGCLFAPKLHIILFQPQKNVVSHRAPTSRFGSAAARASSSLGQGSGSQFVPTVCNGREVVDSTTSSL
T1 sequence (P31421 19-872): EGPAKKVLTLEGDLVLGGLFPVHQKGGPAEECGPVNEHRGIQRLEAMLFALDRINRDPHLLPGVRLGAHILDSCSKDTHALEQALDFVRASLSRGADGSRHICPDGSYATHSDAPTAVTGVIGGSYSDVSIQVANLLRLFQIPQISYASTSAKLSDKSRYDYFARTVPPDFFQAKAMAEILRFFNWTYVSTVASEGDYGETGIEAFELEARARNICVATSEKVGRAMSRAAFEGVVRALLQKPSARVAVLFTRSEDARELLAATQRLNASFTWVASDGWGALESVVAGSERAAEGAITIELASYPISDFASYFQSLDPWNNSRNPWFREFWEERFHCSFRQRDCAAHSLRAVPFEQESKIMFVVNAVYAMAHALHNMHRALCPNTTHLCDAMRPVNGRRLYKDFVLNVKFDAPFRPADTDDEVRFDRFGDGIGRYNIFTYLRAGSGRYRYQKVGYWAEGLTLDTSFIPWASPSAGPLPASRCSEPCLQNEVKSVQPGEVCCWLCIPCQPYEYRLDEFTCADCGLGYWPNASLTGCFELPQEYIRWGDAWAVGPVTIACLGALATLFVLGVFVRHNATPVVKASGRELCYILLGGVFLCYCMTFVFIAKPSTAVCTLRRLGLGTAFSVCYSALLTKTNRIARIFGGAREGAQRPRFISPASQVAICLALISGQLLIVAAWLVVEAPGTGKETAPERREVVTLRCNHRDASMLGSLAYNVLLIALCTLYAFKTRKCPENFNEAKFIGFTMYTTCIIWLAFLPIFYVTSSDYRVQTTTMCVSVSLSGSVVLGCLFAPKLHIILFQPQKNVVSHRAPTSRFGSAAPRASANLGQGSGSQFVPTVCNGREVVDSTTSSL

Consider `Cc1cc(-c2cccc(C3=Nc4cc(C)c(C(F)(F)F)cc4NC(=O)C3)c2)cc(C)n1` [RO4491533], for which the “immobility time in the FST” value in assay [1] is reported as “dose-dependently reduced immobility time”. Moreover, in [2], the “activity in the tail suspension test” value was “active”. For the same molecule, in assay [3], the “hypolocomotor effect of mGlu2/3 agonist (LY379268)” value is listed as “reversed the hypolocomotor effect”.
On to `N#Cc1cccc(-c2cc3c(cc2-c2ccc(F)cc2F)C(=O)NC3)c1F` [Compound 94, 3-(6-(2,4-difluorophenyl)-1-oxoisoindolin-5-yl)-2-fluorobenzonitrile], for which the results for the IC50 in [4] and in assay [5] were 477 nM and over 10000 nM, respectively.
For `CNCCC(Oc1ccc(C(F)(F)F)cc1)c1ccccc1` (centres unmarked) [fluoxetine], the “antidepressant effect in helpless mice” value in assay [2] is “full antidepressant effect”.
As to `Cc1ccc(C#N)cc1-c1cc2c(cc1-c1ccc(F)cc1F)C(=O)NC2` [Compound 96, 3-(6-(2,4-difluorophenyl)-1-oxoisoindolin-5-yl)-4-methylbenzonitrile], the concentration for half-maximal inhibition (IC50) was 585 nM in assay [4] and over 10000 nM in assay [5].
With `O=C1NCc2cc(CN3CC(O)(C(F)(F)F)C3)c(-c3ccc(F)cc3F)cc21` [Compound A12, 6-(2,4-difluorophenyl)-5-((3-hydroxy-3-(trifluoromethyl)azetidin-1-yl)methyl)isoindolin-1-one], the figures for the IC50 in assay [6] and in [4] were 528 nM and over 10000 nM, respectively.
As to `Cc1ccc(-c2cc3c(cc2-c2ccc(F)cc2)C(=O)NC3)nc1` [Compound 52, 6-(4-fluorophenyl)-5-(5-methylpyridin-2-yl)isoindolin-1-one], the 50% inhibitory concentration (IC50) in [4] was 953 nM; in [5], over 10000 nM.
Regarding `O=C1NCc2cc(-c3cccnc3C3CC3)c(-c3ccc(F)cc3F)cc21` [Compound 74, 5-(2-cyclopropylpyridin-3-yl)-6-(2,4-difluorophenyl)isoindolin-1-one], the IC50 in assay [5] was over 10000 nM.
Take `Cc1c(-c2cc3c(cc2-c2ccc(F)cc2F)C(=O)NC3)cc(C#N)n1C` [Compound 90, 4-(6-(2,4-difluorophenyl)-1-oxoisoindolin-5-yl)-1,5-dimethyl-1H-pyrrole-2-carbonitrile]: the IC50 amounted to 185 nM in [6] and 225 nM in assay [4].
Consider `CCCCCCCOC(=O)[C@@]1(F)[C@@H]2C[C@@H](OCc3ccc(Cl)c(Cl)c3)[C@@](N)(C(=O)O)[C@@H]21` [BCI-838], for which, in [7] (once-daily oral dosing), the “duration of inhibition of group II mGlu receptors by brain concentration of active metabolite BCI-632” value is 22 h. For the same molecule, the “learning and memory impairment” value in assay [7] (three months of treatment, Dutch APP transgene) is “reversed Dutch APP transgene-associated learning and memory impairment”. Also, the anxiolytic effects result in [7] (three months of treatment) is given as “provided anxiolytic effects”. For the same molecule, the “levels of monomeric and oAβ peptides in the hippocampus and cortex” value in [7] (three months of treatment, two AD mouse models) is “decreased the levels of monomeric and oAβ peptides”. Besides, the “hippocampal progenitor cell proliferation” value in assay [7] (wild-type and Alzheimer's diseased mice, 3 months) was “stimulated hippocampal progenitor cell proliferation”.
Consider `Cc1cc(C#N)cc(-c2cc3c(cc2-c2ccc(F)cc2F)C(=O)NC3)c1` [Compound 91, 3-(6-(2,4-difluorophenyl)-1-oxoisoindolin-5-yl)-5-methylbenzonitrile], for which the IC50 in assay [4] was 697 nM; in assay [5] it was over 10000 nM.
As to `Cc1ccc(-c2cc3c(cc2-c2ccc(F)cc2F)C(=O)NC3)cn1` [Compound 69, 6-(2,4-difluorophenyl)-5-(6-methylpyridin-3-yl)isoindolin-1-one], the IC50 in assay [4] is 659 nM; in assay [5], over 10000 nM.
For the molecule `Cn1cc(-c2cc3c(cc2-c2ccc(F)cc2)C(=O)NC3)cn1` [Compound 1, 6-(4-fluorophenyl)-5-(1-methyl-1H-pyrazol-4-yl)isoindolin-1-one], the IC50 in [6] and in assay [4] was over 10000 nM throughout.
As for `Cc1ncc(-c2cc3c(cc2-c2ccc(F)cc2)C(=O)NC3)s1` [Compound 5, 6-(4-fluorophenyl)-5-(2-methylthiazol-5-yl)isoindolin-1-one], the results for the IC50 in assay [4] and in [5] were 839 nM and 5820 nM, respectively.
Taken in the same sequence, the figures for `O=C1NCc2cc(C3CCOCC3)c(-c3ccc(F)cc3)cc21` [Compound 64, 6-(4-fluorophenyl)-5-(tetrahydro-2H-pyran-4-yl)isoindolin-1-one] were 762 nM and over 10000 nM.
`N[C@](CC1c2ccccc2Oc2ccccc21)(C(=O)O)[C@H]1C[C@@H]1C(=O)O` [LY341495]: in assay [1], the “immobility time in the FST” value is recorded as “dose-dependently reduced immobility time”. Also, in assay [8], the Aβ-induced neurodegeneration result was “this effect was prevented”. Also, in assay [9], the “antidepressant-like effects in mouse tail-suspension test” value is given as “Antidepressant-like effects”. Further, in [10], the marble-burying behavior entry was “significantly reduce marble-burying behavior”. Also, in assay [2], the “activity in the tail suspension test” value is “active” and the “antidepressant effect in helpless mice” value was “potent antidepressant effect”. Further, the “hypolocomotor effect of mGlu2/3 agonist (LY379268)” value in assay [3] is given as “achieved the same result”. Besides, the “antidepressant-like effects in rat forced swim test” value in assay [11] was “Antidepressant-like effects”.
`Cc1c(-c2cc3c(cc2-c2ccc(F)cc2)C(=O)NC3)ccc2[nH]ncc12` [Compound 9, 6-(4-fluorophenyl)-5-(4-methyl-1H-indazol-5-yl)isoindolin-1-one]: the IC50 in assay [4] was determined as 1280 nM; in assay [5] it was 1980 nM.
On to `Cc1cc(-c2cc3c(cc2-c2ccc(F)cc2F)C(=O)NC3)c(C#N)n1C` [Compound 98, 3-(6-(2,4-difluorophenyl)-1-oxoisoindolin-5-yl)-1,5-dimethyl-1H-pyrrole-2-carbonitrile], for which the IC50 worked out at 136 nM in assay [4] and 2620 nM in assay [5].
Turning to `CCS(=O)(=O)N(Cc1cccnc1)c1cccc(-c2ccc(C#N)cc2)c1` [LY566332], the Aβ-induced neurodegeneration entry in assay [8] is “amplified Aβ-induced neurodegeneration”.
For the molecule `O=C1NCc2cc(-c3ccn(C4CC4)n3)c(-c3ccc(F)cc3F)cc21` [Compound 108, 5-(1-cyclopropyl-1H-pyrazol-3-yl)-6-(2,4-difluorophenyl)isoindolin-1-one], the values for the IC50 in assay [4] and in assay [5] were 347 nM and 4790 nM, respectively.
For the molecule `N[C@]1(C(=O)O)[C@H]2[C@@H](C[C@H]1OCc1ccc(Cl)c(Cl)c1)[C@]2(F)C(=O)O` [MGS0039], the “antidepressant-like effects in mouse tail-suspension test” value in [9] is on record as “Antidepressant-like effects”. Further, in [12], the “immobility in the FST” value is given as “reversed the increased immobility”. The “freezing behavior, CFS model” value in assay [13] is “significantly decreased freezing behavior”. Moreover, in assay [14], the “hyperactivity in the open field test” value is reported as “attenuated the hyperactivity” and the “learning deficit in the passive avoidance test” value was “attenuated the learning deficit”. The “number of escape failures, learned helplessness test” value in [15] is listed as “significantly reduced the number of escape failures”. Moreover, in assay [10], the marble-burying behavior result was “reduced marble-burying behavior in a significant and dose dependent manner”; the spontaneous locomotor activity entry is reported as “no significant change”. The “antidepressant-like effects in rat forced swim test” value in [11] was “Antidepressant-like effects”.
Take `O=C1NCc2cc(-c3cnco3)c(-c3ccc(F)cc3)cc21` [Compound 2, 6-(4-fluorophenyl)-5-(oxazol-5-yl)isoindolin-1-one]: the figures for the IC50 in assay [6] and in assay [4] were 5840 nM and over 10000 nM, respectively.
For `O=C1NCc2cc(-c3ccc4ocnc4c3)c(-c3ccc(F)cc3F)cc21` [Compound 24, 5-(benzo[d]oxazol-5-yl)-6-(2,4-difluorophenyl)isoindolin-1-one], the IC50 in [4] is 953 nM; in [5] it was over 10000 nM.
Taken in the same sequence, the figures for `O=C1NCc2cc(-c3cnc4[nH]ccc4c3)c(-c3ccc(F)cc3F)cc21` [Compound 87, 6-(2,4-difluorophenyl)-5-(1H-pyrrolo[2,3-b]pyridin-5-yl)isoindolin-1-one] were 618 nM and over 10000 nM.
For `COc1cncc(-c2cc3c(cc2-c2ccc(F)cc2F)C(=O)NC3)c1` [Compound 101, 6-(2,4-difluorophenyl)-5-(5-methoxypyridin-3-yl)isoindolin-1-one], the IC50 in assay [4] was 534 nM; in assay [5] it was over 10000 nM.
